From patent US20220152015A1, “NEDOCROMIL SODIUM TO PREVENT, LIMIT ONSET, AND /OR TREAT PANCREATIC CANCER” (priority 2020, published 2022) come the findings set out here.

Data set [1] deals with stage 4 transit metastatic melanoma. As to the kind of experiment: Transit metastasis melanoma case study, topical application. As to the method:
Person with stage 4 transit metastatic melanoma with 30 melanomas on the body. Using chemotherapy infusions every 3 weeks since 2019. For 2 weeks used topical Nedocromil sodium with one dose per tumor (30) per week. […] In modern medicine the goal is to shrink a tumor, but the tumor never resolves. […] The patient was treated with Nedocromil Sodium on all 30 tumors in one sitting.

Data set [2] relates to K-ras^G12Dp53^−/− tumors. Briefly: Surgically implanted PDAC tumors in tumor-bearing C57BL/6 mice. The format is in vivo. The protocol: To determine whether targeting mast cell function has a therapeutic effect in PDAC, we injected tumor-bearing C57BL/6 mice Nedocromil sodium, a mast cell stabilizer. […] Tumor measurement was performed at the end time point (day 50) after treatment. […] Similarly, mast cell degranulation in the tumor microenvironment was inhibited in the nedocromil sodium-treated group compared with in the saline-treated control group.

In data set [3] the test system is cancerous tumor. As to the kind of experiment: Dog tumor case, topical application. The format is in vivo. The protocol:
Summary—A female dog was given the diagnosis of a cancerous tumor (without confirmatory histology due to lack of ability to aspirate the tumor due to the hardness of the mass) in June of 2020. At the time of diagnosis the tumor located on […] right shoulder was measured at 2 inches by 2 inches with a depth of 0.5 inches. Other than supportive care (ketogenic diet to delay tumor progression, and gabapentin for neuropathic pain) no treatment was provided by the owners, as the cost and lack of clear benefit to conventional therapy (biopsy, chemotherapy, and eventual resection) was not deemed to be appropriate for this dog. […] On December 23rd, 2020 the first application of Nedocromil sodium compound was administered to the dog via the topical route. The dog's tumor area was shaved to improve the absorption of the compound into the skin. On Jul. 16, 2021 (tumor size of 1.5×1×0.5 inches), a second application of Nedocromil Sodium was applied using the same dosing strategy in attempt to eradicate the tumor entirely.

The target in data set [4] is T1, human GPR35 (Homo sapiens, UniProt Q9HC97).
T1 construct: expressed in transfected cells; host or cells: CHO-K1
Briefly: PathHunter human GPR35a-β-arrestin-2 interaction assay in CHO-K1 cells. The data set is classed as cell-based.

Data set [5] has as its system ion channels present in the intestinal cell line HT29. Briefly: Whole-cell patch-clamp recordings of ion channels. The format is cell-based. The note with it: HT29 cells. The text has this: Summary—Whole-cell patch-clamp recordings were used to test the effects of The Compound on ion channels.
(Patch clamp records ionic current or voltage across a cell membrane.)

In data set [6] the test system is Panc-02 tumor cells. As to the kind of experiment: Panc-02 tumor growth in mice. The data set is classed as in vivo. The note with it: treated mice vs. saline control at day 21 after treatment, P<0.001. From the text:
To determine whether targeting mast cell function has a therapeutic effect in PDAC, we injected tumor-bearing C57BL/6 mice Nedocromil sodium, a mast cell stabilizer. […] […] […] Similarly, mast cell degranulation in the tumor microenvironment was inhibited in the nedocromil sodium-treated group compared with in the saline-treated control group.

Each structure is given as a SMILES string.

T1 sequence (Q9HC97 whole entry): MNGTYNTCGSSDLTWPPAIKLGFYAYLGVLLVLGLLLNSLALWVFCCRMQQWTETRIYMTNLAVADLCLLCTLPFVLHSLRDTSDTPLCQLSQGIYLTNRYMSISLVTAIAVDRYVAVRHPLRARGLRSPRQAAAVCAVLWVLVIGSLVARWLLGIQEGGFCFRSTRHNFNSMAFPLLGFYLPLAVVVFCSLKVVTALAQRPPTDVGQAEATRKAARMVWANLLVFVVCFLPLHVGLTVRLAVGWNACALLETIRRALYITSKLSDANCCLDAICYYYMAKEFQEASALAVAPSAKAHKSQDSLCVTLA

One may read the EC50 as the concentration at which the effect is half-maximal. A higher EC50 goes with lower potency in that assay. In the case of `CCCc1c2oc(C(=O)[O-])cc(=O)c2cc2c(=O)cc(C(=O)[O-])n(CC)c12.[Na+].[Na+]` [Nedocromil Sodium, 4H-Pyrano[3,2-g]quinoline-2,8-dicarboxylic acid, 9-ethyl-6,9-dihydro-4,6-dioxo-10-propyl-, disodium salt], the “number of tumors dissolved” value in data set [1] (after 2nd topical treatment) stood at 17 OF THE 30 TUMORS. Further, the tumor change result in data set [1] (after one topical treatment, 30 tumors) was “the tumors have flattened”; in data set [3] (8 week mark after second topical application), “no tumor was able to be felt”; in data set [3] (roughly 6 weeks after second topical application), “noticeably smaller”. The side effects result in data set [1] (all 30 tumors treated in one sitting) is listed as “no side effects”. For the same molecule, in data set [2] (compared with saline-treated control group), the “mast cell degranulation in the tumor microenvironment” value is listed as “inhibited”. The same molecule displayed a mean tumor size in data set [2] (end time point (day 50) after treatment, saline group 31.3) of 5.2 mm^3. Further, the tumor growth result in data set [2] (treated mice vs. saline control at day 42 after treatment, P<0.001) is given as “significantly suppressed”; in data set [6], “significantly suppressed”. The concentration giving a half-maximal response (EC50) in data set [4] (CHO-K1 cell line stably expressing human GPR35 and β-arrestin) is 2980 ± 1270 nM. The “agonism of GPR 35” value in data set [4] (PathHunter β-arrestin-2 interaction assay) is “potent full agonist”. Also, the “dose dependence of ion channel block” value in data set [5] is “dose-dependent manner”.
